Measured values as given in patent EP0977036A1, “METHOD FOR ASSAYING AGALACTO-IgG AND ASSAY KITS, PO[…] LECTINS, AND DNAS ENCODING THE SAME” (SEIKAGAKU CORPORATION, priority 1996, dated 1998).

Tested on: PVL
Experiment: Influence of various monosaccharides on the agalacto-IgG assay system (PVL immobilized on plate, peroxidase-labeled anti-human IgG antibody)
Assay type: binding, Psathyrella velutina
Conditions: 50 mM monosaccharide added to agalacto-IgG standard solution (2.5 µg/ml); value without monosaccharide defined as 100%
Procedure: PVL purified in Example 1 or commercially available PVL was diluted to 20 µg/ml in 0.1 M carbonate buffer containing 10% glycerol (pH 8.5 to 9), and 50 µl of this solution (1 µg/well) was added to each well of a Nunc immunoplate (trade name; Maxisorp, Nunc), and left at 4°C for 16 hours to uniformly coat each well.
This plate was washed twice with PBS(-), and PBS(-) solution containing 3% bovine serum albumin (BSA, sold by Seikagaku Corporation) was added as a blocking agent, and left stand at room temperature for two hours to coat the portions of the wells on which PVL was not immobilized.
Then, the plate was washed three times with a washing solution (PBS(-) containing 0.05% Tween 20), and 50 µl each of standard solutions at various concentrations (0.125 to 2 µg/ml) of the agalacto-IgG purified in Preparation Example 1 was added, and left stand at 37°C for 60 minutes for reaction. As the solvent of the agalacto-IgG standard solutions, PBS(-) containing 1% BSA and 0.05% Tween 20 (referred to as "reaction diluent" hereinafter) was used. […]
After the color development, 50 µl of 1 N HCl was added to the plate to terminate the reaction, and absorbance at a wavelength of 450 nm of the solution colored by the decomposition of TMB was measured (reference wavelength: 630 nm, A450/630) by Well Reader SK601 (sold by Seikagaku Corporation). […]

**Q.** How did the inhibition turn out when `CC(=O)N[C@H]1C(O)O[C@H](CO)[C@@H](O)[C@@H]1O` (stereo partly shown) [GlcNAc, N-acetylglucosamine] was run?
**A.** Its inhibition is “about 50%”.
